Data taken from patent US20240218022A1, “ANTI-VISTA MACROCYCLIC PEPTIDES AND COMPOSITIONS” (BRISTOL-MYERS SQUIBB COMPANY, priority 2022, published 2024).
pIC50: −log10 of the molar value. Positions of bridges follow the written chain, without caps; N, C: chain ends. Non-standard residues stand in square brackets, D forms with d. Residues, ends and D or L forms follow the SMILES beside them. 2Nal = N[C@@H](Cc1ccc2ccccc2c1)C(=O)O; Ahp(2) = CCCCC[C@H](N)C(=O)O; NHexGly = CCCCCCNCC(=O)O; Nle = CCCC[C@H](N)C(=O)O

Biological target: T1, mouse VISTA (mVISTA) (Mus musculus, UniProt Q9D659)
T1 construct: expressed in transfected cells; host or cells: Human embryonic kidney 293T cells
T1 sequence (Q9D659 33-308): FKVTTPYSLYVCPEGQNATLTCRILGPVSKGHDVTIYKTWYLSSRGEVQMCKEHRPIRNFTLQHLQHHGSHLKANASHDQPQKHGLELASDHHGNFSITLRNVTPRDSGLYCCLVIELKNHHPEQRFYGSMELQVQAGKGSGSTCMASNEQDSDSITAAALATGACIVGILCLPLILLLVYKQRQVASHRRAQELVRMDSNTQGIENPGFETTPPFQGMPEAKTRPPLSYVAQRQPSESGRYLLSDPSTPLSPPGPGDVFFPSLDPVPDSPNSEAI
Experiment: Cell-Based Binding High-Content Assay For mVISTA (HC CBA mVISTA)
Conditions: cell-based binding high-content assay, mVISTA; the 16th table; read-out: HC CBA mVISTA IC50
Procedure: Cell-Based Binding High-Content Assay For mVISTA
Human embryonic kidney 293T cells (293T) expressing mouse VISTA (mVISTA) were used for the assessment of compounds competing with the binding of a biotinylated peptide. Cryopreserved cells were thawed in a 37° C. water bath and incubated overnight at a 37° C./5% CO2 incubator in assay culture media DMEM (Life Technologies Inc. Cat. No. 11995-126) supplemented with 10% (v/v) FBS (Sigma, Cat. No. F4135), 1× Penicillin/Streptomycin (Life Technologies Inc. Cat. No. 15140-122). Cells were harvested, washed and resuspended in DMEM media […]. To test compounds under “no-wash” condition, cells were seeded into PDL-coated 384 well plates (Corning, Cat. No. 356663) at 4,000 cells/20 μL. After incubating the cell plates for two hours at a 37° C./5% CO2 incubator, 125 nL of test compound was added using an ECHO. Alternatively, to test compounds under “wash” condition, test compounds were added first, followed by addition of 20 μL cells at a density of 4000 cells/well. After incubation for an hour, the media was removed, followed by addition of 20 μL of fresh media ( ), and plates were then incubated for another hour. To plates either under “no wash” or “wash” condition, the biotinylated peptide was added to a final concentration of 2 nM, and plates were incubated at room temperature for 30 minutes. Fifteen (15) μL of Alexa 647 conjugated Streptavidin (Life Tech, Cat. No. S21374), suspended at 2 μg/ml in media, was added to the assay plate and incubate for 30 minutes. Cells were fixed by adding 15 μL of formaldehyde at a final concentration of 8% (w/v) (Sigma Cat. No. 252549), 20 μg/mL Hoechst (Thermo Scientific Cat. No. 62249) in PBS for 10 minutes at room temperature. The plates were washed 3 times in dPBS, sealed, and read on a CellInsight NXT High Content Screening Platform IC903000 (Thermo Scientific). The 50% effective concentration (IC50) was calculated using the four-parameter logistic formula y=A+((B−A)/(1+((C/x)^D))), where A and B denote minimal and maximal % inhibition, respectively, C is the EC50, D is hill slope and x represent compound concentration.

| Compound | pIC50 |
| --- | --- |
| CCCCCCN1CC(=O)N[C@@H](Cc2ccc(O)cc2)C(=O)N[C@@H](CC(C)C)C(=O)N[C@@H](CC(=O)O)C(=O)N[C@@H](CCCNC(=N)N)C(=O)N[C@@H](CC(C)C)C(=O)N[C@@H](CCCCC)C(=O)N2CCC[C@H]2C(=O)N[C@@H](C(C)C)C(=O)N[C@@H](CC(=O)O)C(=O)N[C@H](C(=O)NCC(=O)O)CSCC(=O)N[C@@H](Cc2ccc3ccccc3c2)C(=O)N[C@@H](Cc2ccc(O)cc2)C(=O)N[C@@H](CC(=O)O)C1=O [Ex 1278] ({CH2CO}-[2Nal]YD[NHexGly]YLDRL[Ahp(2)]PVDCG-OH; thioether N-14) | 7.62 |
| CCCCCCN1CC(=O)N[C@@H](Cc2ccc(O)cc2)C(=O)N[C@@H](CCCCC)C(=O)N[C@@H](CC(=O)O)C(=O)N[C@@H](CCCNC(=N)N)C(=O)N[C@@H](CC(C)C)C(=O)N[C@@H](CCCCC)C(=O)N2CCC[C@H]2C(=O)N[C@@H](C(C)C)C(=O)N[C@@H](CC(=O)O)C(=O)N[C@H](C(=O)NCC(N)=O)CSCC(=O)N[C@@H](Cc2ccc3ccccc3c2)C(=O)N[C@@H](Cc2ccc(O)cc2)C(=O)N[C@@H](CC(=O)O)C1=O [Ex 1279] ({CH2CO}-[2Nal]YD[NHexGly]Y[Ahp(2)]DRL[Ahp(2)]PVDCG-NH2; thioether N-14) | 7.58 |
| CCCCCCN1CC(=O)N[C@@H](Cc2ccc(O)cc2)C(=O)N[C@@H](C(C)C)C(=O)NCC(=O)N[C@@H](CCCNC(=N)N)C(=O)N[C@@H](CC(C)C)C(=O)N[C@@H](CCCCC)C(=O)N2CCC[C@H]2C(=O)N[C@@H](C(C)C)C(=O)N[C@@H](CC(=O)O)C(=O)N[C@H](C(=O)NCC(=O)O)CSCC(=O)N[C@@H](Cc2ccc3ccccc3c2)C(=O)N[C@@H](Cc2ccc(O)cc2)C(=O)N[C@@H](CC(=O)O)C1=O [Ex 1280] ({CH2CO}-[2Nal]YD[NHexGly]YVGRL[Ahp(2)]PVDCG-OH; thioether N-14) | 7.47 |
| CCCCCCN1CC(=O)N[C@@H](Cc2ccc(O)cc2)C(=O)N[C@@H](CC(C)C)C(=O)NCC(=O)N[C@@H](CCCNC(=N)N)C(=O)N[C@@H](CC(C)C)C(=O)N[C@@H](CCCCC)C(=O)N2CCC[C@H]2C(=O)N[C@@H](C(C)C)C(=O)N[C@@H](CC(=O)O)C(=O)N[C@H](C(=O)NCC(N)=O)CSCC(=O)N[C@@H](Cc2ccc3ccccc3c2)C(=O)N[C@@H](Cc2ccc(O)cc2)C(=O)N[C@@H](CC(=O)O)C1=O [Ex 1281] ({CH2CO}-[2Nal]YD[NHexGly]YLGRL[Ahp(2)]PVDCG-NH2; thioether N-14) | 7.64 |
| CCCCCCN1CC(=O)N[C@@H](Cc2ccc(O)cc2)C(=O)N[C@@H](CC(C)C)C(=O)NCC(=O)N[C@@H](CCCNC(=N)N)C(=O)N[C@@H](CC(C)C)C(=O)N[C@@H](CCCCC)C(=O)N2CCC[C@H]2C(=O)N[C@@H](C(C)C)C(=O)N[C@@H](CC(=O)O)C(=O)N[C@H](C(=O)NCC(=O)O)CSCC(=O)N[C@@H](Cc2ccc3ccccc3c2)C(=O)N[C@@H](Cc2ccc(O)cc2)C(=O)N[C@@H](CC(=O)O)C1=O [Ex 1282] ({CH2CO}-[2Nal]YD[NHexGly]YLGRL[Ahp(2)]PVDCG-OH; thioether N-14) | 7.93 |
| CCCCCCN1CC(=O)N[C@@H](Cc2ccc(O)cc2)C(=O)N[C@@H](C(C)C)C(=O)NCC(=O)N[C@@H](CCCNC(=N)N)C(=O)N[C@@H](CC(C)C)C(=O)N[C@@H](CCCCC)C(=O)N2CCC[C@H]2C(=O)N[C@@H](C(C)C)C(=O)N[C@@H](CC(=O)O)C(=O)N[C@H](C(=O)NCC(N)=O)CSCC(=O)N[C@@H](Cc2ccc3ccccc3c2)C(=O)N[C@@H](Cc2ccc(O)cc2)C(=O)N[C@@H](CC(=O)O)C1=O [Ex 1283] ({CH2CO}-[2Nal]YD[NHexGly]YVGRL[Ahp(2)]PVDCG-NH2; thioether N-14) | 7.72 |
| CCCCCCN1CC(=O)N[C@@H](Cc2ccc(O)cc2)C(=O)N[C@@H](CCCC)C(=O)NCC(=O)N[C@@H](CCCNC(=N)N)C(=O)N[C@@H](CC(C)C)C(=O)N[C@@H](CCCCC)C(=O)N2CCC[C@H]2C(=O)N[C@@H](C(C)C)C(=O)N[C@@H](CC(=O)O)C(=O)N[C@H](C(=O)NCC(N)=O)CSCC(=O)N[C@@H](Cc2ccc3ccccc3c2)C(=O)N[C@@H](Cc2ccc(O)cc2)C(=O)N[C@@H](CC(=O)O)C1=O [Ex 1284] ({CH2CO}-[2Nal]YD[NHexGly]Y[Nle]GRL[Ahp(2)]PVDCG-NH2; thioether N-14) | 8.44 |
